Measured values: patent publication US3996228A, “Pyrimidinoaminoethyl ergoline derivatives” (Societa' Farmaceutici Italia S.p.A., priority 1973, dated 1976)
≈ marks a conversion by molar mass, not a printed value. Read-outs that look alike come from different tables or passages of the source.

Tests used:
LD50 (acute toxicity) = conditions: rat, in vivo, rats
Procedure: (§1) The compounds of the present invention have a high and prolonged adrenolytic activity and a low toxicity and are therefore useful in therapy. This adrenolytic activity was tested "in vitro" on isolated guinea pig seminal vescicle suspended in physiological solution and "in vivo" on the rat. Table 1 reports the values of concentrations, in γ/ml, which are able to produce a 50% inhibition (IC50) of the spasmogen effect caused by adrenaline and the doses in mg/Kg (ED50) able to reduce by 50% the lethal effects caused by adrenaline after oral (os) and intravenous (i.v.) administration of the compounds in question. Table 1 also reports the LD50 values, both per os and i.v. in rats.

[1] = tested on: lethal effects caused by adrenaline; test: adrenolytic activity in vivo: reduction of the lethal effects caused by adrenaline; conditions: rat, 50% reduction of lethal effects caused by adrenaline
Procedure: as §1

[2] = tested on: isolated guinea pig seminal vescicle; test: adrenolytic activity in vitro: inhibition of the spasmogen effect caused by adrenaline; assay type: cell-based; conditions: Cavia porcellus, 50% inhibition of spasmogen effect caused by adrenaline
Procedure: as §1

[3] = analgesic activity, writhing test; assay type: in vivo
Procedure: (§2) The analgesic activity was evaluated by means of the hot plate test and the writhing test, the data being given in comparison with morphine and D-propoxyphene.
(§3) In the hot plate and writhing tests, the comparison compounds morphine and D-propoxyphene have been arbitrarily assigned the value of 1.

hypertensive rat = test: hypotensive activity on the hypertensive rat; assay type: in vivo; conditions: po, per os, dose which causes a pressure drop of about 30-40 mmHg, read-out: Hypotensive Activity active dose
Procedure: The hypotensive activity was tested on the hypertensive rat; the reported data being the dose expressed in mg/Kg per os, which causes a pressure drop of about 30-40 mmHg.

[4] = analgesic activity, hot plate test; assay type: in vivo; conditions: for Analgesic Activity Hot Plate, relative to D-propoxyphene: D-propoxyphene = 1
Procedure: as §2, §3

[5] = iv, i.v., read-out: Adrenolytic Activity "in vivo" ED50 i.v.
[6] = po, per os, read-out: Adrenolytic Activity "in vivo" ED50 os
[7] = morphine = 1, listed as 1,6-dimethyl-8β-[5-amino-2-pyrimidino-aminoethyl]-10α-ergoline

Row | SMILES | LD50 (LD50 (acute toxicity); iv, i.v., read-out: LD50 i.v.) [mg/kg] | LD50 (LD50 (acute toxicity); po, per os, read-out: LD50 os) [mg/kg] | ED50 [1, 5] [mg/kg] | ED50 [1, 6] [mg/kg] | IC50 [2] [µg/mL] | Analgesic Activity Writhing, relative to D-propoxyphene ([3]; D-propoxyphene = 1) | Analgesic Activity Writhing, relative to morphine ([3]; morphine = 1) | Analgesic Activity Writhing, relative to morphine [3, 7] | ED (30-40 mmHg pressure drop) (hypertensive rat) [mg/kg] | Analgesic Activity Hot Plate, relative to D-propoxyphene [4] | Analgesic Activity Hot Plate, relative to morphine ([4]; morphine = 1) | Analgesic Activity Hot Plate, relative to morphine [4, 7]
1 | Cc1cnc(NCC[C@@H]2C[C@@H]3c4cccc5c4c(cn5C)C[C@H]3N(C)C2)nc1 [1,6-Dimethyl-8β-[5-methyl-2-pyrimidinoaminoethyl]-10α-ergoline] | 19 | 130 | 0.07 | 0.5 | 0.5 (≈ 1.33 µM) |  |  |  |  |  |  | 
2 | CO[C@]12C[C@@H](CCNc3ncc([N+](=O)[O-])cn3)CN(C)[C@@H]1Cc1cn(C)c3cccc2c13 [1,6-Dimethyl-8β-[5-nitro-2-pyrimidinoaminoethyl]-10α-methoxyergoline] |  | 150 | 0.25 | 0.42 | 0.5 (≈ 1.15 µM) |  |  |  |  |  |  | 
3 | CN1C[C@H](CCNc2ncccn2)C[C@@H]2c3cccc4c3c(cn4C)C[C@H]21 [1,6-dimethyl-8β-[2-pyrimidinoaminoethyl]-10α-ergoline] | 18 | 100 | 0.2 | 0.1 | 0.001 (≈ 0.00277 µM) |  |  |  |  |  |  | 
4 | CN1C[C@H](CCNc2ncc(N)cn2)C[C@@H]2c3cccc4c3c(cn4C)C[C@H]21 [1,6-dimethyl-8β-[5-amino-2-pyrimidinoaminoethyl]-10α-ergoline] |  |  |  |  |  | 10 | 1 | same activity as morphine | 10 | 5 | 1 | same activity as morphine
5 | CO[C@]12C[C@@H](CCNc3ncc(Br)cn3)CN(C)[C@@H]1Cc1cn(C)c3cccc2c13 [1,6-dimethyl-8β-[5-bromo-2-pyrimidinoaminoethyl]-10α-methoxyergoline] |  | 200 | 0.65 | > 1 | 0.01 (≈ 0.0213 µM) |  |  |  |  |  |  | 
6 | COc1cnc(NCC[C@@H]2C[C@@H]3c4cccc5c4c(cn5C)C[C@H]3N(C)C2)nc1 [1,6-dimethyl-8β-[5-methoxy-2-pyrimidinoaminoethyl]-10α-ergoline] |  |  |  |  |  |  |  |  | 10 | 2 | 0.5 | 
